One series addresses T1, human Kv1.3 (Homo sapiens, UniProt P22001).
T1 construct: expressed in transfected cells; host or cells: Jurkat cells
In words: Thallium-sensitive fluorescence assay for the voltage gated ion channel Kv1.3 in Jurkat cells. It is filed as cell-based. The conditions noted are these: for inhibition at 10 µM: Jurkat, read-out: KV1,3 antagonist activity [% Inhibition at 10 μM]; for IC50: read-out: KV1,3 antagonist activity IC50. As for the experimental part: 2. Assay for the Voltage Gated Ion Channel Kv1.3
Assays were performed and analyized with a FLIPR^TETRA device as specified above.
Compounds for inhibition of ion channel Kv1.3 were assayed in Jurkat cells recombinantly expressing human Kv1.3. For high throughput screening a thallium-sensitive, fluorescence-based assay was used. […] To identify blockers of this ion channel the cells were incubated with different concentrations of compounds 5 min before increasing the potassium and thallium concentration. The fluorescence signals by increasing potassium were then compared in the absence and presence of compounds. Dose response curves were established by adding different concentrations of compounds and analyzing the signal. As reference Kv1.3 blockers margatoxin and quinidine in Cl-free buffer were used as described in the literature.
The results of the Kv1.3 assay are depicted in Table 51 below.

Series [1] is described as follows: Metabolic stability assay, CD-1 mouse microsomes. It is filed as in vitro ADME. The settings on record: microsomes; for Metabolic Stability 60 min mouse [% remain.]: 1 h; for half-life at 10 µM: both sexes.
The nature of series [2]: in vitro. It is filed as in vitro ADME, mouse. The settings on record: plasma; for Plasma Stability 240 min mouse [% remain.]: 4 h.
Series [3] is described as follows: in vitro. It is filed as in vitro ADME, human. The conditions noted are these: human, plasma; for Plasma Stability 240 min hum [% remain.]: 4 h.
Series [4] can be described thus: Metabolic stability assay, human microsomes. It is filed as in vitro ADME. The conditions noted are these: human, microsomes; for Metabolic Stability 60 min hum [% remain.]: 1 h; for half-life at 10 µM: both sexes.
The target in another series is T2, Purinoreceptor P2Y1 (Homo sapiens, UniProt P47900).
T2 construct: host or cells: Ca2+ optimized hematopoietic cell lines (rat)
T2 sequence (P47900 whole entry): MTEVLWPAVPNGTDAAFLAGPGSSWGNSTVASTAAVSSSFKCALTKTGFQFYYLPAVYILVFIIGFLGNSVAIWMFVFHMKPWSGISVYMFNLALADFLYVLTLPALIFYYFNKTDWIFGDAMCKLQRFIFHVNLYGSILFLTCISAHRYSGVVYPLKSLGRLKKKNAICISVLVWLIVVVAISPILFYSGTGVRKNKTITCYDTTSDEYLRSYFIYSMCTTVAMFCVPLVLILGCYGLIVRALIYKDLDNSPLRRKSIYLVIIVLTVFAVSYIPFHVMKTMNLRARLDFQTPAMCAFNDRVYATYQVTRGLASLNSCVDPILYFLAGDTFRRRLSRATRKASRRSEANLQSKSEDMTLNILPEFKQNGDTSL
As to the kind of experiment: Ca2+ assay (FLIPR) for the GPCR purinoreceptor P2Y1, agonist and antagonist mode. It is filed as cell-based. The settings on record: P2Y1 receptor. As for the experimental part:
Biological and Pharmacological Methods 1. Ca^2+ Assays for the GPCRs Motilin Receptor, Prostaglandin F (FP) Receptor, 5-hydroxytryptamine 2B (5-HT2B) Receptor, and Purinoreceptor P2Y1
(§1) Assays were performed using on a FLIPR^TETRA fluorometric imaging plate reader (Molecular Devices) with ScreenWorks Version 2 (Molecular Devices) as device operating and data analysis software.
(§2) Dose dependent agonist and antagonist activities were determined. Percentage activation and percentage inhibition values were determined.
(§3) Percentage activation was determined upon initial addition of the sample compounds followed by 10 minutes incubation at 25° C. Following compound incubation, reference agonists were added at EC80 to determine percentage inhibition.
(§4) Reference agonists were purchased from reputable commercial vendors and prepared according to each ligand's specifications. All handling of ligands were done to ensure proper control throughout the experiments.
(§5) Example compounds were weighed on a Microbalance (Mettler MX5) and dissolved in 100% DMSO to a final concentration of 2.5 mM and subsequently diluted into the assay buffer.
(§6) The Assay buffer was a supplemented HBSS (Hank's Balanced Salt Solution). HBSS was supplemented with 20 mM HEPES (4-(2-hydroxyethyl)-piperazin-1-ethansulfonic acid) and 2.5 mM Probenecid (Sigma P8761).
GPCR assays were performed using Ca^2+ optimized hematopoietic cell lines (rat) with cultures never exceeding 90% confluency. Cells were harvested and seeded (from cultures at less than 90% confluency) at 50000 cells/well for a 96-well plate (12500 cells/well for 384). After seeding, the assay plates were incubated for forty-five (45) minutes at room temperature. After room temperature incubation, the assay plates were incubated at 37° C. 5% CO2 for 24 hours prior to assaying.
(§7) All GPCR assays were performed using Fluo-8 Ca^2+ dye. Ca^2+ dye was prepared at 1× dye concentration in GPCR assay buffer. After 24 hours of incubation, cells were washed with GPCR assay buffer, and then Ca^2+-dye (100 μL/well) was added.
(§8) The plates were incubated for 90 minutes at 30° C. 5% CO2 prior to FLIPR assay.
(§9) Compound plates were prepared to add 50 μL/well during the agonist assay mode. During the FLIPR assay, 50 μL/well from the compound plate was diluted 3-fold into the existing 100 μL/well from the dye loading step. Therefore all compounds were prepared as 3× the final concentration desired in the assay.
(§10) After completion of the first single addition assay run, assay plate was removed from the FLIPR Tetra and placed at 25° C. for seven (7) minutes before antagonist assay.
(§11) Using the EC80 values determined during the agonist assay, all pre-incubated sample compound and reference antagonist (if applicable) wells were stimulated at the EC80 of the reference agonist. As reference ligands for the first three assays their obvious natural ligands motilin, prostaglandin F2α, and serotonin (5-HT, 5-Hydroxytryptamine) were used; and for the P2Y1 assay 2MeSATP (2-methyl-thio-adeno-sine 5′-triphosphate, i.e. (2R,3S,4R)-5-(6-amino-2-methylsulfanyl-purin-9-yl)-3,4-dihydroxy-tetrahydrofuran-2-yl]methyl (hydroxy-phosphonooxy-phosphoryl)hydrogen phosphate) was applied.
(§12) After the addition of the reference agonist fluorescence was monitored for 180 sec using FLIPR Tetra.
(§13) Data Analysis and Results:
(§14) From the FLIPR data, with negative control correction enabled, the maximum statistic for each well was exported and percentage activation relative to Emax control was calculated.

The next series addresses T3, Motilin Receptor (Homo sapiens, UniProt O43193).
T3 construct: host or cells: Ca2+ optimized hematopoietic cell lines (rat)
As to the kind of experiment: Ca2+ assay (FLIPR) for the GPCR motilin receptor, agonist and antagonist mode. It is filed as cell-based. The settings on record: antagonist mode.

Series [5] has as its target T4, Prostaglandin F (FP) Receptor (Homo sapiens, UniProt P43088).
T4 construct: host or cells: Ca2+ optimized hematopoietic cell lines (rat)
As to the kind of experiment: Ca2+ assay (FLIPR) for the GPCR prostaglandin F (FP) receptor, agonist and antagonist mode. It is filed as cell-based. The conditions noted are these: 10 μM. Summed up: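 Ca2+-optimized rat hematopoietic cells carrying the receptor were loaded with Fluo-8 in HBSS/20 mM HEPES/2.5 mM probenecid and read on FLIPR. Agonist mode: 10 min compound incubation at 25 °C, % activation relative to Emax. Antagonist mode: stimulation at EC80 of the reference agonist (prostaglandin F2α for FP, 2MeSATP for P2Y1), fluorescence monitored 180 s.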

In series [6] the target is T5, 5-hydroxytryptamine 2B (5-HT2B) Receptor (Homo sapiens, UniProt P41595).
T5 construct: host or cells: Ca2+ optimized hematopoietic cell lines (rat)
T5 sequence (P41595 whole entry, species assumed): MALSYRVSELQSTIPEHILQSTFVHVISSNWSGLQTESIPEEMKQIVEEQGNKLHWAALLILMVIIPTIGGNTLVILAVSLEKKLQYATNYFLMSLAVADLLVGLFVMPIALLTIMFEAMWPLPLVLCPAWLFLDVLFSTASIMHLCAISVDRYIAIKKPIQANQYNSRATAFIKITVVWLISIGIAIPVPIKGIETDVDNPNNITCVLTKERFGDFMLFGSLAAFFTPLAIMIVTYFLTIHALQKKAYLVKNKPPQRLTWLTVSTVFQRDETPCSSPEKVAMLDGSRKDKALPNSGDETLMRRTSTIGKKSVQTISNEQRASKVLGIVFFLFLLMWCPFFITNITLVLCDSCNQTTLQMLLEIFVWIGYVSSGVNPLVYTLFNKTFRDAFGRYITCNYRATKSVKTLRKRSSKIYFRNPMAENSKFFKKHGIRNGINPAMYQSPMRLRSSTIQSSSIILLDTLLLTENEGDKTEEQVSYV
In words: Ca2+ assay (FLIPR) for the GPCR 5-HT2B receptor, agonist and antagonist mode. It is filed as cell-based. As for the experimental part:
Ca^2+ Assays for the GPCRs Motilin Receptor, Prostaglandin F (FP) Receptor, 5-hydroxytryptamine 2B (5-HT2B) Receptor, and Purinoreceptor P2Y1
as §1, §2, §3, §4, §5, §6
GPCR assays were performed using Ca^2+ optimized hematopoietic cell lines (rat) with cultures never exceeding 90% confluency. […] After seeding, the assay plates were incubated for forty-five (45) minutes at room temperature. After room temperature incubation, the assay plates were incubated at 37° C. 5% CO2 for 24 hours prior to assaying.
as §7, §8, §9, §10, §11, §12, §13, §14
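For Plasma Stability 240 min mouse [% remain.] in this document: sodium citrate stabilized mouse plasma, parent compound quantified by HPLC/MS/MS relative to its peak area at time zero, run in triplicate.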
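For Plasma Stability T½ [min] mouse in this document: sodium citrate stabilized mouse plasma, parent compound quantified by HPLC/MS/MS relative to its peak area at time zero, run in triplicate.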

T1 sequence (P22001 whole entry): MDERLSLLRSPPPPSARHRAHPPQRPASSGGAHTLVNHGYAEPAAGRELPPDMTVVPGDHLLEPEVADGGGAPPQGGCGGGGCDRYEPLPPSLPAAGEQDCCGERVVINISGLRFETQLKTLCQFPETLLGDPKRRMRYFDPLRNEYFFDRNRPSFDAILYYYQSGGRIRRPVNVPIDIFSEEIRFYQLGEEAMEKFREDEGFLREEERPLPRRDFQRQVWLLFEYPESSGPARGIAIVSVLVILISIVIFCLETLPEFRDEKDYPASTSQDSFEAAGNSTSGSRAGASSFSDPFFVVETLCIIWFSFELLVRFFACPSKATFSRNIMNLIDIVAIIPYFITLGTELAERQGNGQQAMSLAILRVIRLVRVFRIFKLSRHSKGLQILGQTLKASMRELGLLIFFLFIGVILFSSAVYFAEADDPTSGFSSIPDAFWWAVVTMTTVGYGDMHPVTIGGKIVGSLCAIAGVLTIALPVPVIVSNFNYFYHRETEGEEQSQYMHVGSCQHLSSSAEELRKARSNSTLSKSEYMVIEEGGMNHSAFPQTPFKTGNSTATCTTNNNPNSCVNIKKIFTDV
T3 sequence (O43193 whole entry, species assumed): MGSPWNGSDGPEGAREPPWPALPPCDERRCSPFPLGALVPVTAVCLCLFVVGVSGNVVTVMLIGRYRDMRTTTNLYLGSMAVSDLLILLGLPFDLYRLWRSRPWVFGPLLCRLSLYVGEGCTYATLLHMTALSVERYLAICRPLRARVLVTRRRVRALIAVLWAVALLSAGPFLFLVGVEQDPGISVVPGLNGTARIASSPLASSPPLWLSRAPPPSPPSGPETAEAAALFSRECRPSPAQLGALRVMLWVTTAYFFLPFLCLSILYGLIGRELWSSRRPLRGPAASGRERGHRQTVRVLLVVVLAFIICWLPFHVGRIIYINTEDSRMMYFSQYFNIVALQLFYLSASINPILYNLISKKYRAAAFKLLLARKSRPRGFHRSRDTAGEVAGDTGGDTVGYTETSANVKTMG
T4 sequence (P43088 whole entry): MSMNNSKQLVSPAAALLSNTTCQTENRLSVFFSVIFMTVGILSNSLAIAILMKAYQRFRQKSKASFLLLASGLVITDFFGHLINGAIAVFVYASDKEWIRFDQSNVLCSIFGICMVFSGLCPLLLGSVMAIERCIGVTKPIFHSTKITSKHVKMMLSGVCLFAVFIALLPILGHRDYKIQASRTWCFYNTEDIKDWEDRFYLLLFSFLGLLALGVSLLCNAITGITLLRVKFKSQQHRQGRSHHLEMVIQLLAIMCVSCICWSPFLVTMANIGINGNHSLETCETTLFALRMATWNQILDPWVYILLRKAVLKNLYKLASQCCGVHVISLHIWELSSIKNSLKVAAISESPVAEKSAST

Regarding `CCCCC(=O)N[C@H]1C[C@H]2COc3cccc(c3)C(=O)N(C)CC[C@H](NC(=O)c3ccc4ccccc4c3)C(=O)N2C1` [Ex. 171, N-[(4S,6S,10S)-13-methyl-9,14-dioxo-6-(pentanoylamino)-2-oxa-8,13-diazatricyclo[13.3.1.0^4,8]nonadeca-1(19),15,17-trien-10-yl]-2-naphthamide], the inhibition at 10 µM on human Kv1.3 worked out at 12%.
On to `CCCCC(=O)N[C@H]1C[C@H]2COc3cccc(c3)C(=O)N(C)CC[C@H](NC(=O)CCc3ccncc3)C(=O)N2C1` [Ex. 170], for which, in [1] (mouse), the Metabolic Stability T½ [min] mouse was over 60 min and the “Metabolic Stability 60 min mouse [% remain.]” value is reported as 86 % remain. In addition, on human Kv1.3 (10 μM), the “KV1,3 antagonist activity [% Inhibition at 10 μM]” value stood at 10%. Further, in “in vitro [2]” (mouse), the Plasma Stability T½ [min] mouse is over 240 min and the “Plasma Stability 240 min mouse [% remain.]” value is 100 % remain. In “in vitro [3]”, the Plasma Stability T½ [min] hum was over 240 min and the “Plasma Stability 240 min hum [% remain.]” value came out at 92 % remain. Further, in series [4], the Metabolic Stability T½ [min] hum was over 60 min and the “Metabolic Stability 60 min hum [% remain.]” value was 60 % remain.
In series [1] (CD-1, mouse), `CN1CCC(NC(=O)OCc2ccccc2)C(=O)N2CC(NC(=O)Cc3ccc4ccccc4c3)CC2COc2cccc(c2)C1=O` [Ex. 168, benzyl N-[(4S,6S,10S)-13-methy1-6-{[2-(2-naphthyl)acetyl]amino}-9,14-dioxo-2-oxa-8,13-diazatricyclo [13.3.1.0^4,8]nonadeca-1(19),15,17-trien-10-yl]carbamate] showed a half-life at 10 µM of 26 min. The “Metabolic Stability 60 min mouse [% remain.]” value in series [1] (both, CD-1, mouse, 10 µM) was 21 % remain. On human Kv1.3, the inhibition at 10 µM stood at 44% and the concentration for half-maximal inhibition (IC50) came to 1.69 µM. In the series “in vitro [2]” (both, CD-1, mouse, 10 µM), the Plasma Stability T½ [min] mouse was over 240 min and the “Plasma Stability 240 min mouse [% remain.]” value is 99 % remain. Moreover, in the series “in vitro [3]” (10 µM), the Plasma Stability T½ [min] hum is over 240 min and the “Plasma Stability 240 min hum [% remain.]” value is listed as 85 % remain. Also, the half-life at 10 µM in series [4] turned out to be 25 min. The “Metabolic Stability 60 min hum [% remain.]” value in series [4] (both, 10 µM) is given as 17 % remain.
As for `CCCCC(=O)N[C@H]1C[C@H]2COc3cccc(c3)C(=O)N(C)CC[C@H](NC(=O)OCc3ccccc3)C(=O)N2C1` [Ex. 166, benzyl N-[(4S,6S,10S)-13-methyl-9,14-dioxo-6-(pentanoylamino)-2-oxa-8,13-diazatricyclo[13.3.1.0^4,8]nonadeca-1(19),15,17-trien-10-yl]carbamate], the inhibition at 10 µM on human Kv1.3 is 20%.
With `CN1CC(=O)N2C[C@H](NC(=O)CCc3ccncc3)C[C@H]2CSc2cccc(c2)C(=O)N(C)[C@H](C(=O)NCc2ccc3ccccc3c2)CCC1=O` [Ex. 321, (4S,6R,15S)-11,16-dimethyl-N-(2-naphthylmethyl)-9,12,17-trioxo-6-{[3-(4-pyridinyl)propanoyl]amino}-2-thia-8,11,16-triazatricyclo[16.3.1.0^4,8]docosa-1(22),18,20-triene-15-carboxamide], on Purinoreceptor P2Y1, the IC50 turned out to be 7.5 µM and testing at 10 µM gave an inhibition of 45%.
On to `CN1CC(=O)N2C[C@@H](NC(=O)Cc3c[nH]c4ccccc34)C[C@H]2COc2ccc(F)cc2C(=O)N(C)[C@H](C(=O)NCCc2c[nH]c3ccccc23)CCC1=O` [Ex. 12, (2S,11S,19aS)-15-fluoro-2-{[2-(1H-indol-3-yl)acetyl]amino}-N-[2-(1H-indol-3-yl)ethyl]-7,12-dimethyl-5,8,13-trioxo-2,3,6,7,8,9,10,11,12,13, 19,19a-dodecahydro-1H,5H-pyrrolo[2,1-c] [1,4,7,12]benzoxatriazacyclopentadecine-11-carboxamide], for which the half-life at 10 µM in [1] (CD-1, mouse) was 35 min; in series [4] it was 17 min. Further, in series [1] (both, CD-1, mouse, 10 µM), the “Metabolic Stability 60 min mouse [% remain.]” value stood at 33 % remain. Besides, on Motilin Receptor, the 50% inhibitory concentration (IC50) came out at 2.7 µM. The inhibition at 10 µM is 95% on Motilin Receptor (at 10 μM) and 44% in series [5]. Further, the Plasma Stability T½ [min] mouse in the series “in vitro [2]” (both, CD-1, mouse, 10 µM) is over 240 min. For the same compound, in “in vitro [2]” (both, CD-1, mouse, 10 µM), the “Plasma Stability 240 min mouse [% remain.]” value is listed as 100 % remain. Further, the Plasma Stability T½ [min] hum in the series “in vitro [3]” (10 µM) is over 240 min. For the same compound, in “in vitro [3]” (10 µM), the “Plasma Stability 240 min hum [% remain.]” value is 99 % remain. This compound displayed an EC50 in series [6] of 3.3 µM. Further, the “Agonist activity [% activation at 12.5 μM]” value in [6] (12.5 μM) worked out at 36%. Further, the “Metabolic Stability 60 min hum [% remain.]” value in series [4] (both, 10 µM) was determined as 7 % remain.
For the compound `CN1CC[C@H](NC(=O)Cc2cccc3ccccc23)C(=O)N2C[C@@H](NC(=O)Cc3ccc4ccccc4c3)C[C@H]2COc2cccc(c2)C1=O` [Ex. 177, N-[(4S,6S,10S)-13-methyl-6-{[2-(2-naphthyl)acetyl]amino}-9,14-dioxo-2-oxa-8,13-diazatricyclo[13.3.1.0^4,8]nonadeca-1(19),15,17-trien-10-yl]-2-(1-naphthyl)acetamide], on human Kv1.3, the inhibition at 10 µM is 54% and the IC50 stood at 3.5 µM.
Take `CC(=O)N[C@@H]1C[C@H]2CSc3cccc(c3)C(=O)N(C)[C@H](C(=O)NCc3ccc4ccccc4c3)CCC(=O)N(C)CC(=O)N2C1` [Ex. 320, (4S,6R,15S)-6-(acetylamino)-11,16-dimethyl-N-(2-naphthylmethyl)-9,12,17-trioxo-2-thia-8,11,16-triazatricyclo[16.3.1.0^4,8]docosa-1(22),18,20-triene-15-carboxamide]: the inhibition at 10 µM at Purinoreceptor P2Y1 turned out to be 19%.
Regarding `CCCCC(=O)N[C@@H]1C[C@H]2CSc3cccc(c3)C(=O)N(C)[C@H](C(=O)NCc3ccc4ccccc4c3)CCC(=O)N(C)CC(=O)N2C1` [Ex. 322, (4S,6R,15S)-11,16-dimethyl-N-(2-naphthylmethyl)-9,12,17-trioxo-6-(pentanoylamino)-2-thia-8,11,16-triazatricyclo[16.3.1.0^4,8]docosa-1(22),18,20-triene-15-carboxamide], on Purinoreceptor P2Y1, at 10 µM the inhibition was 60%.
On to `CN1CC(=O)N2C[C@H](NC(=O)OC(C)(C)C)C[C@H]2CSc2cccc(c2)C(=O)N(C)[C@H](C(=O)NCc2ccc3ccccc3c2)CCC1=O` [Ex. 316, tert-butyl N-[(4S,6R,15S)-11,16-dimethyl-15-{[(2-naphthylmethyl)amino]carbonyl}-9,12,17-trioxo-2-thia-8,11,16-triazatricyclo[16.3.1.0^4,8]docosa-1(22),18,20-trien-6-yl]carbamate], for which, on Purinoreceptor P2Y1, the inhibition at 10 µM worked out at 57%.

The values above are taken from patent US9512139B2, “Conformationally constrained, fully synthetic macrocyclic compounds” (POLYPHOR AG, priority 2009, dated 2016).
